Data: PubChem BioAssay (NCI)
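48-hour exposure; five concentrations; linearly interpolated endpoints. TGI marks complete inhibition of growth.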

Tests used:
Test in all cases: NCI anticancer screen, dose series, 48 h
786-0 renal = system: 786-0 renal
A498 renal = system: A498 renal
A549 NSCLC = system: A549 NSCLC
ACHN renal = system: ACHN renal
BT-549 breast = system: BT-549 breast
CAKI-1 renal = system: CAKI-1 renal
CCRF-CEM leukemia = system: CCRF-CEM leukemia
COLO 205 colon = system: COLO 205 colon
DU-145 prostate = system: DU-145 prostate
EKVX NSCLC = system: EKVX NSCLC
HCC-2998 colon = system: HCC-2998 colon
HCT-116 colon = system: HCT-116 colon
HCT-15 colon = system: HCT-15 colon
HOP-62 NSCLC = system: HOP-62 NSCLC
HOP-92 NSCLC = system: HOP-92 NSCLC
HS 578T breast = system: HS 578T breast
HT29 colon = system: HT29 colon
IGROV1 ovarian = system: IGROV1 ovarian
K-562 leukemia = system: K-562 leukemia
KM12 colon = system: KM12 colon
LOX IMVI melanoma = system: LOX IMVI melanoma
M14 melanoma = system: M14 melanoma
MALME-3M melanoma = system: MALME-3M melanoma
MCF7 breast = system: MCF7 breast
MDA-MB-231 breast = system: MDA-MB-231 breast
MDA-MB-435 = system: MDA-MB-435
MDA-N = system: MDA-N
MOLT-4 leukemia = system: MOLT-4 leukemia
NCI-H226 lung = system: NCI-H226 lung
NCI-H23 lung = system: NCI-H23 lung
NCI-H460 lung = system: NCI-H460 lung
NCI-H522 lung = system: NCI-H522 lung
NCI/ADR-RES ovarian = system: NCI/ADR-RES ovarian
OVCAR-3 ovarian = system: OVCAR-3 ovarian
OVCAR-4 ovarian = system: OVCAR-4 ovarian
OVCAR-5 ovarian = system: OVCAR-5 ovarian
OVCAR-8 ovarian = system: OVCAR-8 ovarian
PC-3 prostate = system: PC-3 prostate
SF-268 CNS = system: SF-268 CNS
SF-539 CNS = system: SF-539 CNS
SK-MEL-2 melanoma = system: SK-MEL-2 melanoma
SK-MEL-28 melanoma = system: SK-MEL-28 melanoma
SK-MEL-5 melanoma = system: SK-MEL-5 melanoma
SK-OV-3 ovarian = system: SK-OV-3 ovarian
SN12C renal = system: SN12C renal
SNB-19 CNS = system: SNB-19 CNS
SR leukemia = system: SR leukemia
SW-620 colon = system: SW-620 colon
TK-10 renal = system: TK-10 renal
U251 CNS = system: U251 CNS
UACC-257 melanoma = system: UACC-257 melanoma
UACC-62 melanoma = system: UACC-62 melanoma
UO-31 renal = system: UO-31 renal
HL-60(TB) leukemia = system: HL-60(TB) leukemia
RPMI-8226 leukemia = system: RPMI-8226 leukemia
RXF 393 renal = system: RXF 393 renal
SF-295 CNS = system: SF-295 CNS
T-47D breast = system: T-47D breast
SNB-75 CNS = system: SNB-75 CNS

CSc1nc(NC2CC2)c2c(n1)Sc1nc3ccccc3n1N=C2
TGI (786-0 renal): 21 µM
TGI (A498 renal): 60.8 µM
TGI (A549 NSCLC): 97 µM
TGI (ACHN renal): 31.1 µM
TGI (BT-549 breast): > 100 µM
TGI (CAKI-1 renal): > 100 µM
TGI (CCRF-CEM leukemia): > 100 µM
TGI (COLO 205 colon): > 100 µM
TGI (DU-145 prostate): 46.1 µM
TGI (EKVX NSCLC): 98.7 µM
TGI (HCC-2998 colon): > 100 µM
TGI (HCT-116 colon): 27.4 µM
TGI (HCT-15 colon): > 100 µM
TGI (HOP-62 NSCLC): 39.6 µM
TGI (HOP-92 NSCLC): 73.9 µM
TGI (HS 578T breast): 24.2 µM
TGI (HT29 colon): > 100 µM
TGI (IGROV1 ovarian): > 100 µM
TGI (K-562 leukemia): > 100 µM
TGI (KM12 colon): > 100 µM
TGI (LOX IMVI melanoma): > 100 µM
TGI (M14 melanoma): > 100 µM
TGI (MALME-3M melanoma): 50.9 µM
TGI (MCF7 breast): 96.2 µM
TGI (MDA-MB-231 breast): 48.9 µM
TGI (MDA-MB-435): > 100 µM
TGI (MDA-N): > 100 µM
TGI (MOLT-4 leukemia): > 100 µM
TGI (NCI-H226 lung): 54.6 µM
TGI (NCI-H23 lung): > 100 µM
TGI (NCI-H460 lung): > 100 µM
TGI (NCI-H522 lung): > 100 µM
TGI (NCI/ADR-RES ovarian): 69.7 µM
TGI (OVCAR-3 ovarian): 40.3 µM
TGI (OVCAR-4 ovarian): 55.8 µM
TGI (OVCAR-5 ovarian): > 100 µM
TGI (OVCAR-8 ovarian): 85.3 µM
TGI (PC-3 prostate): > 100 µM
TGI (SF-268 CNS): 80.7 µM
TGI (SF-539 CNS): 27.4 µM
TGI (SK-MEL-2 melanoma): 82.4 µM
TGI (SK-MEL-28 melanoma): > 100 µM
TGI (SK-MEL-5 melanoma): 49.5 µM
TGI (SK-OV-3 ovarian): 45.9 µM
TGI (SN12C renal): 33.4 µM
TGI (SNB-19 CNS): 72.5 µM
TGI (SR leukemia): > 100 µM
TGI (SW-620 colon): > 100 µM
TGI (TK-10 renal): 62.4 µM
TGI (U251 CNS): 61.8 µM
TGI (UACC-257 melanoma): > 100 µM
TGI (UACC-62 melanoma): 76.9 µM
TGI (UO-31 renal): 44.4 µM

O=C1OS2(OC(=O)c3cccc4cccc2c34)c2ccccc21 (configuration not stated)
TGI (786-0 renal): > 100 µM
TGI (A498 renal): > 100 µM
TGI (A549 NSCLC): > 100 µM
TGI (ACHN renal): > 100 µM
TGI (BT-549 breast): > 100 µM
TGI (CAKI-1 renal): > 100 µM
TGI (CCRF-CEM leukemia): > 100 µM
TGI (COLO 205 colon): > 100 µM
TGI (DU-145 prostate): > 100 µM
TGI (EKVX NSCLC): > 100 µM
TGI (HCT-116 colon): > 100 µM
TGI (HCT-15 colon): > 100 µM
TGI (HL-60(TB) leukemia): > 100 µM
TGI (HOP-62 NSCLC): > 100 µM
TGI (HOP-92 NSCLC): > 100 µM
TGI (HS 578T breast): > 100 µM
TGI (HT29 colon): > 100 µM
TGI (IGROV1 ovarian): > 100 µM
TGI (K-562 leukemia): > 100 µM
TGI (KM12 colon): > 100 µM
TGI (LOX IMVI melanoma): > 100 µM
TGI (M14 melanoma): > 100 µM
TGI (MALME-3M melanoma): > 100 µM
TGI (MCF7 breast): > 100 µM
TGI (MDA-MB-231 breast): > 100 µM
TGI (MDA-MB-435): > 100 µM
TGI (MDA-N): > 100 µM
TGI (MOLT-4 leukemia): > 100 µM
TGI (NCI-H226 lung): > 100 µM
TGI (NCI-H23 lung): > 100 µM
TGI (NCI-H522 lung): > 100 µM
TGI (NCI/ADR-RES ovarian): > 100 µM
TGI (OVCAR-3 ovarian): > 100 µM
TGI (OVCAR-4 ovarian): > 100 µM
TGI (OVCAR-5 ovarian): > 100 µM
TGI (OVCAR-8 ovarian): > 100 µM
TGI (PC-3 prostate): > 100 µM
TGI (RPMI-8226 leukemia): > 100 µM
TGI (RXF 393 renal): > 100 µM
TGI (SF-268 CNS): > 100 µM
TGI (SF-295 CNS): > 100 µM
TGI (SF-539 CNS): > 100 µM
TGI (SK-MEL-2 melanoma): > 100 µM
TGI (SK-MEL-28 melanoma): > 100 µM
TGI (SK-MEL-5 melanoma): > 100 µM
TGI (SN12C renal): > 100 µM
TGI (SNB-19 CNS): > 100 µM
TGI (SW-620 colon): > 100 µM
TGI (T-47D breast): > 100 µM
TGI (TK-10 renal): > 100 µM
TGI (U251 CNS): > 100 µM
TGI (UACC-257 melanoma): > 100 µM
TGI (UO-31 renal): > 100 µM

CCCCC(=O)Nc1ccc2cc(C(=O)OC)c(=O)[nH]c2n1
TGI (786-0 renal): > 100 µM
TGI (A498 renal): > 100 µM
TGI (A549 NSCLC): > 100 µM
TGI (ACHN renal): > 100 µM
TGI (BT-549 breast): > 100 µM
TGI (CAKI-1 renal): > 100 µM
TGI (CCRF-CEM leukemia): > 100 µM
TGI (COLO 205 colon): > 100 µM
TGI (EKVX NSCLC): > 100 µM
TGI (HCC-2998 colon): > 100 µM
TGI (HCT-116 colon): > 100 µM
TGI (HCT-15 colon): > 100 µM
TGI (HOP-62 NSCLC): > 100 µM
TGI (HOP-92 NSCLC): > 100 µM
TGI (IGROV1 ovarian): > 100 µM
TGI (K-562 leukemia): > 100 µM
TGI (KM12 colon): > 100 µM
TGI (LOX IMVI melanoma): > 100 µM
TGI (M14 melanoma): > 100 µM
TGI (MALME-3M melanoma): > 100 µM
TGI (MCF7 breast): > 100 µM
TGI (MDA-MB-231 breast): > 100 µM
TGI (MDA-MB-435): > 100 µM
TGI (MDA-N): > 100 µM
TGI (MOLT-4 leukemia): > 100 µM
TGI (NCI-H226 lung): > 100 µM
TGI (NCI-H23 lung): > 100 µM
TGI (NCI-H460 lung): > 100 µM
TGI (NCI-H522 lung): > 100 µM
TGI (NCI/ADR-RES ovarian): > 100 µM
TGI (OVCAR-3 ovarian): > 100 µM
TGI (OVCAR-4 ovarian): > 100 µM
TGI (OVCAR-5 ovarian): > 100 µM
TGI (OVCAR-8 ovarian): > 100 µM
TGI (PC-3 prostate): > 100 µM
TGI (RPMI-8226 leukemia): > 100 µM
TGI (RXF 393 renal): > 100 µM
TGI (SF-268 CNS): > 100 µM
TGI (SF-295 CNS): > 100 µM
TGI (SF-539 CNS): > 100 µM
TGI (SK-MEL-2 melanoma): > 100 µM
TGI (SK-MEL-28 melanoma): > 100 µM
TGI (SK-MEL-5 melanoma): > 100 µM
TGI (SK-OV-3 ovarian): > 100 µM
TGI (SN12C renal): > 100 µM
TGI (SNB-19 CNS): > 100 µM
TGI (SNB-75 CNS): > 100 µM
TGI (SR leukemia): > 100 µM
TGI (SW-620 colon): > 100 µM
TGI (T-47D breast): > 100 µM
TGI (TK-10 renal): > 100 µM
TGI (U251 CNS): > 100 µM
TGI (UACC-257 melanoma): > 100 µM
TGI (UO-31 renal): > 100 µM

N#CCCN(CCN(CCN(C(=O)Nc1ccccc1)c1ccccc1)C(=O)Nc1ccccc1)C(=O)Nc1ccccc1
TGI (786-0 renal): > 100 µM
TGI (A498 renal): > 100 µM
TGI (A549 NSCLC): > 100 µM
TGI (ACHN renal): > 100 µM
TGI (BT-549 breast): > 100 µM
TGI (CAKI-1 renal): > 100 µM
TGI (CCRF-CEM leukemia): > 100 µM
TGI (COLO 205 colon): > 100 µM
TGI (DU-145 prostate): > 100 µM
TGI (EKVX NSCLC): > 100 µM
TGI (HCC-2998 colon): > 100 µM
TGI (HCT-116 colon): > 100 µM
TGI (HCT-15 colon): > 100 µM
TGI (HOP-62 NSCLC): > 100 µM
TGI (HOP-92 NSCLC): > 100 µM
TGI (HS 578T breast): > 100 µM
TGI (IGROV1 ovarian): > 100 µM
TGI (KM12 colon): > 100 µM
TGI (LOX IMVI melanoma): > 100 µM
TGI (M14 melanoma): > 100 µM
TGI (MCF7 breast): > 100 µM
TGI (MDA-MB-231 breast): > 100 µM
TGI (MDA-MB-435): > 100 µM
TGI (MDA-N): > 100 µM
TGI (MOLT-4 leukemia): > 100 µM
TGI (NCI-H226 lung): > 100 µM
TGI (NCI-H23 lung): > 100 µM
TGI (NCI/ADR-RES ovarian): > 100 µM
TGI (OVCAR-3 ovarian): > 100 µM
TGI (OVCAR-4 ovarian): > 100 µM
TGI (OVCAR-5 ovarian): > 100 µM
TGI (OVCAR-8 ovarian): > 100 µM
TGI (PC-3 prostate): > 100 µM
TGI (RPMI-8226 leukemia): > 100 µM
TGI (RXF 393 renal): > 100 µM
TGI (SF-268 CNS): > 100 µM
TGI (SF-295 CNS): > 100 µM
TGI (SF-539 CNS): > 100 µM
TGI (SK-MEL-2 melanoma): > 100 µM
TGI (SK-MEL-28 melanoma): > 100 µM
TGI (SK-MEL-5 melanoma): > 100 µM
TGI (SK-OV-3 ovarian): > 100 µM
TGI (SN12C renal): > 100 µM
TGI (SNB-19 CNS): > 100 µM
TGI (SNB-75 CNS): > 100 µM
TGI (SW-620 colon): > 100 µM
TGI (T-47D breast): > 100 µM
TGI (TK-10 renal): > 100 µM
TGI (U251 CNS): > 100 µM
TGI (UACC-257 melanoma): > 100 µM
TGI (UACC-62 melanoma): > 100 µM
TGI (UO-31 renal): > 100 µM
